{"source": "patent US20190010139A1", "about": "(priority 2015, published 2019)", "test_system": "NL-RLuc virus", "experiment": "Inhibition of HIV replication (NL-RLuc luciferase reporter virus in MT-2 cells)", "format": "cell-based", "details": "Human immunodeficiency virus 1, MT2, 120 h", "excerpt": "Inhibition of HIV Replication:\nA recombinant NL-RLuc proviral clone was constructed in which a section of the nef gene from NL4-3 was replaced with the Renilla Luciferase gene. This virus is fully infectious and can undergo multiple cycles of replication in cell culture. In addition, the luciferous reporter provides a simple and easy method for quantitating the extent of virus growth and consequently, the antiviral activity of test compounds. The plasmid pNLRLuc contains the proviral NL-Rluc DNA cloned into pUC 18 at the PvuII site. The NL-RLuc virus was prepared by transfection of 293T cells with the plasmid pNLRLuc. Transfections were performed using the LipofectAMINE PLUS kit from Invitrogen (Carlsbad, Calif.) according to the manufacturer and the virus generated was titered in MT-2 cells. For susceptibility analyses, the titrated virus was used to infect MT-2 cells in the presence of compound, and after 5 days of incubation, cells were processed and quantitated for virus growth by the amount of expressed luciferase. Assay media was RPMI 1640 supplemented with 10% heat inactivated fetal bovine serum (FBS), 100 units/ml penicillin G/100 units/ml streptomycin, 10 mM HEPES buffer pH 7.55 and 2 mM L-glutamine. The results from at least 2 experiments were used to calculate the EC50 values. Luciferase was quantitated using the Dual Luciferase kit from Promega (Madison, Wis.). Susceptibility of viruses to compounds was determined by incubation in the presence of serial dilutions of the compound. The 50% effective concentration (EC50) was calculated by using the exponential form of the median effect equation where (Fa)=1/[1+(ED50/drug conc.)^m](Johnson V A, Byington R T. Infectivity Assay. In Techniques in HIV Research. ed. Aldovini A, Walker B D. 71-76. New York: Stockton Press.1990). Activity equal to A refers to a compound having an EC50≤100 nM, while B and C denote compounds having an EC50 between 100 nM and 1 uM (B) or >1 uM (C).", "note": "Like-named read-outs stand apart in the source and are kept apart here."}
{"smiles": "Cc1nc(C)c([C@H](OC(C)(C)C)C(=O)O)c(N2CCC3(CCCC3)C2)c1-c1ccc(OCCc2ccc(F)cc2)cc1", "note": "[Example 14, (S)-2-(tert-Butoxy)-2-(5-(4-(4-fluorophenethoxy)phenyl)-2,6-dimethyl-4-(2-azaspiro[4.4]nonan-2-yl)pyridin-3-yl)acetic acid]", "values": [{"measurement": "EC50", "setting": "read-out: Activity", "result": "< 0.1", "unit": "µM"}]}
{"smiles": "Cc1nc(C)c([C@H](OC(C)(C)C)C(=O)O)c(N2CCC3(CC2)CC3)c1-c1ccc(C(=O)NCc2ccccc2)cc1", "note": "[Example 17, (S)-2-(5-(4-(Benzylcarbamoyl)-phenyl)-2,6-dimethyl-4-(6-azaspiro[2.5]octan-6-yl)pyridin-3-yl)-2-(tert-butoxy)acetic acid]", "values": [{"measurement": "EC50", "setting": "read-out: Activity", "result": "< 0.1", "unit": "µM"}]}
{"smiles": "Cc1nc(CN(C)CC2CCCCC2)c(-c2ccc(OCCc3ccc(F)cc3)cc2)c(N2CCC3(CCC3)CC2)c1[C@H](OC(C)(C)C)C(=O)O", "note": "[Example 59, (S)-2-(tert-Butoxy)-2-(6-(((cyclohexylmethyl)(methyl)amino)methyl)-5-(4-(4-fluorophenethoxy)phenyl)-2-methyl-4-(7-azaspiro[3.5]nonan-7-yl)pyridin-3-yl)acetic acid]", "values": [{"measurement": "EC50", "setting": "read-out: Activity", "result": "< 0.1", "unit": "µM"}]}
{"smiles": "Cc1nc(C)c([C@H](OC(C)(C)C)C(=O)O)c(N2CCC3(CCC3)CC2)c1-c1ccc(C(=O)NCc2ccccc2)cc1", "note": "[Example 29, (S)-2-(5-(4-(Benzylcarbamoyl)phenyl)-2,6-dimethyl-4-(7-azaspiro[3.5]nonan-7-yl)pyridin-3-yl)-2-(tert-butoxy)acetic acid]", "values": [{"measurement": "EC50", "setting": "read-out: Activity", "result": "< 0.1", "unit": "µM"}, {"measurement": "EC50", "setting": "read-out: EC50 μM", "result": 0.007, "unit": "µM"}]}
{"smiles": "Cc1nc(C)c([C@H](OC(C)(C)C)C(=O)O)c(N2CCC3(CCCC3)CC2)c1-c1ccc(OCCc2ccc(F)cc2)cc1", "note": "[Example 20, (S)-2-(tert-Butoxy)-2-(5-(4-(4-fluorophenethoxy)phenyl)-2,6-dimethyl-4-(8-azaspiro[4.5]decan-8-yl)pyridin-3-yl)acetic acid]", "values": [{"measurement": "EC50", "setting": "read-out: Activity", "result": "< 0.1", "unit": "µM"}]}
{"smiles": "Cc1nc(C)c([C@H](OC(C)(C)C)C(=O)O)c(N2CCC3(CCCO3)CC2)c1-c1ccc(OCCc2ccc(F)cc2)cc1", "note": "[Example 66, (S)-2-(tert-Butoxy)-2-(5-(4-(4-fluorophenethoxy)phenyl)-2,6-dimethyl-4-(1-oxa-8-azaspiro[4.5]decan-8-yl)pyridin-3-yl)acetic acid]", "values": [{"measurement": "EC50", "setting": "read-out: Activity", "result": "< 0.1", "unit": "µM"}]}
{"smiles": "Cc1nc(C)c([C@H](OC(C)(C)C)C(=O)O)c(N2CC3C(C2)C3(C)C)c1-c1ccc(C(=O)NCc2ccccc2)cc1", "note": "(stereo partly drawn) [Example 9, (2S)-2-(5-(4-(Benzylcarbamoyl)phenyl)-4-(6,6-dimethyl-3-azabicyclo[3.1.0]hexan-3-yl)-2,6-dimethylpyridin-3-yl)-2-(tert-butoxy)acetic acid]", "values": [{"measurement": "EC50", "setting": "read-out: Activity", "result": "< 0.1", "unit": "µM"}, {"measurement": "EC50", "setting": "read-out: EC50 μM", "result": 0.083, "unit": "µM"}]}
{"smiles": "Cc1nc(CN2CCC3(CCC3)CC2)c(-c2ccc(OCCc3ccc(F)cc3)cc2)c(N2CCC3(CCC3)CC2)c1[C@H](OC(C)(C)C)C(=O)O", "note": "[Example 57, (S)-2-(6-(7-Azaspiro[3.5]nonan-7-ylmethyl)-5-(4-(4-fluorophenethoxy)phenyl)-2-methyl-4-(7-azaspiro[3.5]nonan-7-yl)pyridin-3-yl)-2-(tert-butoxy)acetic acid]", "values": [{"measurement": "EC50", "setting": "read-out: Activity", "result": "< 0.1", "unit": "µM"}]}
{"smiles": "Cc1nc(C)c([C@H](OC(C)(C)C)C(=O)O)c(N2CC[C@H]3CCCC[C@H]3C2)c1-c1ccc(C(=O)NCc2ccccc2)cc1", "note": "[Example 11, (S)-2-(5-(4-(Benzylcarbamoyl)phenyl)-2,6-dimethyl-4-((4aR,8aR)-octahydroisoquinolin-2(1H)-yl)pyridin-3-yl)-2-(tert-butoxy)acetic acid]", "values": [{"measurement": "EC50", "setting": "read-out: Activity", "result": "< 0.1", "unit": "µM"}]}
{"smiles": "Cc1nc(CN2CCCCC2)c(-c2ccc(OCCc3ccc(F)cc3)cc2)c(N2CCC3(CCC3)CC2)c1[C@H](OC(C)(C)C)C(=O)O", "note": "[Example 53, (S)-2-(tert-Butoxy)-2-(5-(4-(4-fluorophenethoxy)phenyl)-2-methyl-6-(piperidin-1-ylmethyl)-4-(7-azaspiro[3.5]nonan-7-yl)pyridin-3-yl)acetic acid]", "values": [{"measurement": "EC50", "setting": "read-out: Activity", "result": "< 0.1", "unit": "µM"}]}
